Reference: US9212151B2, “Heterocyclic compounds useful for kinase inhibition” (Amitech Therapeutic Solutions, Inc., priority 2010, dated 2015)

Test: MTT cell viability assay, compounds at 5, 1 and 0.2 μM, 48 hours
Type: cell-based
Details: human, A549 tumor cells
Summary of the method: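 A549 cells were seeded at 2500/well in DMEM + 10% FBS, grown overnight, then exposed to compound for 48 h. Viability was read by MTT (5 mg/ml, 4 h), with formazan dissolved in DMSO and absorbance measured at 560/570 nm to give survival rate.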

Row | SMILES | viability at 48 h, 0.2 µM (0.2 μM) | viability at 48 h, 1 µM (1 μM) | viability at 48 h, 5 µM (5 μM) | viability at 48 h, 0.2 µM (0.2 μM compound) | viability at 48 h, 1 µM (1 μM compound) | viability at 48 h, 5 µM (5 μM compound)
1 | FC(F)(F)c1cccc(Nc2nnc(-c3ccc(Oc4nccc5ccccc45)cc3)[nH]2)c1 [Compound 149] | > 70% | > 70% | 50 to 70% | – | – | –
2 | FC(F)(F)c1cccc(Nc2nnc(-c3ccc(Oc4ccnc5cc(Cl)ccc45)cc3)[nH]2)c1 [Compound 150] | > 70% | > 70% | > 70% | – | – | –
3 | CC(C)(C)Sc1cc(Oc2cccc(-c3nnc(Nc4cccc(C(F)(F)F)c4)[nH]3)c2)nc(N)n1 [Compound 151] | > 70% | > 70% | > 70% | – | – | –
4 | Nc1cc(Oc2ccc(-c3nnc(Nc4cccc(C(F)(F)F)c4)[nH]3)cc2)nc(Sc2ccccn2)n1 [Compound 152] | > 70% | > 70% | > 70% | – | – | –
5 | CSc1nc(N)cc(Oc2ccc(-c3nnc(Nc4cccc(C(=O)O)c4)[nH]3)cc2)n1 [Compound 153] | > 70% | > 70% | > 70% | – | – | –
6 | CSc1nc(N)cc(Oc2ccc(-c3nnc(Nc4ccccc4C)[nH]3)cc2)n1 [Compound 154] | 50 to 70% | < 50% | < 50% | – | – | –
7 | CSc1nc(N)cc(Oc2ccc(-c3nnc(NC4CCCCC4)[nH]3)cc2)n1 [Compound 155] | > 70% | > 70% | < 50% | – | – | –
8 | Nc1cc(F)cc(Oc2ccc(-c3nnc(Nc4cccc(C(F)(F)F)c4)[nH]3)cc2)c1 [Compound 156] | > 70% | > 70% | 50 to 70% | – | – | –
9 | Cc1nc(C(F)(F)F)nc(Oc2ccc(-c3nnc(Nc4cccc(C(F)(F)F)c4)[nH]3)cc2)c1C [Compound 157] | > 70% | > 70% | > 70% | – | – | –
10 | Cc1cc(Oc2ccc(-c3nnc(Nc4cccc(C(F)(F)F)c4)[nH]3)cc2)c2ccccc2n1 [Compound 158] | > 70% | > 70% | 50 to 70% | – | – | –
11 | FC(F)(F)c1cccc(Nc2nnc(-c3ccc(Oc4cc(C(F)(F)F)nc5ccccc45)cc3)[nH]2)c1 [Compound 159] | > 70% | > 70% | 50 to 70% | – | – | –
12 | COc1cc2ncnc(Oc3ccc(-c4nnc(Nc5cccc(C(F)(F)F)c5)[nH]4)cc3)c2cc1OC [Compound 160] | > 70% | > 70% | 50 to 70% | – | – | –
13 | O=c1cc(COc2ccc(-c3nnc(Nc4cccc(C(F)(F)F)c4)[nH]3)cc2)c2ccccc2[nH]1 [Compound 161] | > 70% | 50 to 70% | < 50% | – | – | –
14 | Cc1ccc2nccc(Oc3ccc(-c4nnc(Nc5cccc(C(F)(F)F)c5)[nH]4)cc3)c2c1 [Compound 162] | > 70% | > 70% | > 70% | – | – | –
15 | FC(F)(F)Oc1ccc2c(Oc3ccc(-c4nnc(Nc5cccc(C(F)(F)F)c5)[nH]4)cc3)ccnc2c1 [Compound 163] | > 70% | > 70% | > 70% | – | – | –
16 | FC(F)(F)c1cccc(Nc2nnc(-c3cccc(Oc4cncc5ccccc45)c3)[nH]2)c1 [Compound 164] | > 70% | > 70% | 50 to 70% | – | – | –
17 | FC(F)(F)c1cccc(Nc2nnc(-c3cccc(Oc4ccnc5cc(C(F)(F)F)ccc45)c3)[nH]2)c1 [Compound 165] | > 70% | > 70% | > 70% | – | – | –
18 | FC(F)(F)c1cccc(Nc2nnc(-c3cccc(Oc4nccc5ccccc45)c3)[nH]2)c1 [Compound 166] | > 70% | > 70% | > 70% | – | – | –
19 | FC(F)(F)c1cccc(Nc2nnc(-c3cccc(Oc4ccnc5cc(Cl)ccc45)c3)[nH]2)c1 [Compound 167] | > 70% | > 70% | > 70% | – | – | –
20 | Cc1cc(Oc2cccc(-c3nnc(Nc4cccc(C(F)(F)F)c4)[nH]3)c2)c2ccccc2n1 [Compound 168] | > 70% | > 70% | 50 to 70% | – | – | –
21 | FC(F)(F)c1cccc(Nc2nnc(-c3cccc(Oc4cc(C(F)(F)F)nc5ccccc45)c3)[nH]2)c1 [Compound 169] | > 70% | > 70% | > 70% | – | – | –
22 | COc1cc2ncnc(Oc3cccc(-c4nnc(Nc5cccc(C(F)(F)F)c5)[nH]4)c3)c2cc1OC [Compound 170] | > 70% | > 70% | > 70% | – | – | –
23 | O=c1cc(COc2cccc(-c3nnc(Nc4cccc(C(F)(F)F)c4)[nH]3)c2)c2ccccc2[nH]1 [Compound 171] | > 70% | > 70% | > 70% | – | – | –
24 | Cc1ccc2nccc(Oc3cccc(-c4nnc(Nc5cccc(C(F)(F)F)c5)[nH]4)c3)c2c1 [Compound 172] | > 70% | > 70% | 50 to 70% | – | – | –

Row | SMILES | viability at 48 h, 0.2 µM (0.2 μM) | viability at 48 h, 1 µM (1 μM) | viability at 48 h, 5 µM (5 μM) | viability at 48 h, 0.2 µM (0.2 μM compound) | viability at 48 h, 1 µM (1 μM compound) | viability at 48 h, 5 µM (5 μM compound)
25 | FC(F)(F)Oc1ccc2c(Oc3cccc(-c4nnc(Nc5cccc(C(F)(F)F)c5)[nH]4)c3)ccnc2c1 [Compound 173] | > 70% | > 70% | > 70% | – | – | –
26 | FC(F)(F)c1cccc(-c2nnc(Nc3ccc(Oc4cccnc4)cc3)[nH]2)c1 [Compound 174] | > 70% | > 70% | > 70% | – | – | –
27 | COc1ccc2c(Oc3ccc(Nc4nnc(-c5cccc(C(F)(F)F)c5)[nH]4)cc3)ccnc2c1 [Compound 175] | > 70% | > 70% | > 70% | – | – | –
28 | CSc1nc(N)cc(Oc2ccc(Nc3nnc(-c4cccc(C(F)(F)F)c4)[nH]3)cc2)n1 [Compound 176] | > 70% | > 70% | > 70% | – | – | –
29 | Cc1ccc(-c2nnc(Nc3cccc(C(F)(F)F)c3)[nH]2)cc1Oc1cccnc1 [Compound 177] | > 70% | > 70% | > 70% | – | – | –
30 | Cc1ccc(-c2nnc(Nc3cccc(C(F)(F)F)c3)[nH]2)cc1Oc1ccncc1 [Compound 178] | 50 to 70% | < 50% | < 50% | – | – | –
31 | CSc1nc(N)cc(Oc2cc(-c3nnc(Nc4cccc(C(F)(F)F)c4)[nH]3)ccc2C)n1 [Compound 179] | > 70% | > 70% | 50 to 70% | – | – | –
32 | CSc1nc(N)cc(Oc2ccc(Nc3nnc(-c4cccc(Cl)c4)[nH]3)cc2)n1 [Compound 180] | > 70% | > 70% | 50 to 70% | – | – | –
33 | Oc1ccc(Nc2nnc(-c3cccc(C(F)(F)F)c3)[nH]2)cc1 [Compound 181] | > 70% | > 70% | > 70% | – | – | –
34 | Oc1ccc(Nc2nnc(-c3cccc(Cl)c3)[nH]2)cc1 [Compound 182] | > 70% | > 70% | > 70% | – | – | –
35 | COc1ccc(Nc2nnc(-c3cccc(C(F)(F)F)c3)[nH]2)cc1 [Compound 183] | > 70% | > 70% | > 70% | – | – | –
36 | COc1ccc2nccc(Oc3ccc(-c4nnc(Nc5cccc(C(F)(F)F)c5)[nH]4)cc3)c2c1 [Compound 185] | > 70% | > 70% | > 70% | – | – | –
37 | Fc1ccc2c(Oc3ccc(-c4nnc(Nc5cccc(C(F)(F)F)c5)[nH]4)cc3)ccnc2c1 [Compound 186] | > 70% | > 70% | > 70% | – | – | –
38 | FC(F)(F)c1cccc(Nc2nnc(-c3ccc(Oc4ccnc5cc(OCc6ccccc6)ccc45)cc3)[nH]2)c1 [Compound 187] | > 70% | > 70% | > 70% | – | – | –
39 | COc1ccc2c(Oc3ccc(-c4nnc(Nc5cccc(C(F)(F)F)c5)[nH]4)cc3)cc(C)nc2c1 [Compound 188] | > 70% | > 70% | > 70% | – | – | –
40 | N#Cc1ccc2c(Oc3ccc(-c4nnc(Nc5cccc(C(F)(F)F)c5)[nH]4)cc3)ccnc2c1 [Compound 189] | > 70% | > 70% | > 70% | – | – | –
41 | CN(C)c1cc(Oc2ccc(-c3nnc(Nc4cccc(C(F)(F)F)c4)[nH]3)cc2)c2ccccc2n1 [Compound 190] | > 70% | > 70% | 50 to 70% | – | – | –
42 | COc1ccc2nccc(Oc3cccc(-c4nnc(Nc5cccc(C(F)(F)F)c5)[nH]4)c3)c2c1 [Compound 191] | > 70% | > 70% | > 70% | – | – | –
43 | Fc1ccc2c(Oc3cccc(-c4nnc(Nc5cccc(C(F)(F)F)c5)[nH]4)c3)ccnc2c1 [Compound 192] | > 70% | > 70% | > 70% | – | – | –
44 | FC(F)(F)c1cccc(Nc2nnc(-c3cccc(Oc4ccnc5cc(OCc6ccccc6)ccc45)c3)[nH]2)c1 [Compound 193] | > 70% | > 70% | > 70% | – | – | –
45 | COc1ccc2c(Oc3cccc(-c4nnc(Nc5cccc(C(F)(F)F)c5)[nH]4)c3)cc(C)nc2c1 [Compound 194] | > 70% | > 70% | > 70% | – | – | –
46 | CN(C)c1cc(Oc2ccc(-c3nnc(Nc4cccc(C(F)(F)F)c4)[nH]3)cc2)c2ccccc2n1 [Compound 196] | – | – | – | > 70% | > 70% | 50 to 70%
47 | COc1ccc2c(Oc3cc(-c4nnc(Nc5cccc(C(F)(F)F)c5)[nH]4)ccc3C)ccnc2c1 [Compound 197] | – | – | – | > 70% | > 70% | > 70%
